Measured values as given in PMC4032193 (Journal of Medicinal Chemistry, 2014).
pIC50: −log10 of the molar value.

system: HepG2 (hepatocellular carcinoma) cell line; settings: human

SMILES | SI HepG2/D6 | SI HepG2/TM91C235 | SI HepG2/W2 | pIC50
CC(=O)O[C@H]1C[C@H]2[C@@H]([C@H](OC(C)=O)C[C@@H]3CC(NCCCNc4ccnc5cc(Cl)ccc45)CC[C@@]32C)[C@@H]2CC[C@H]([C@H](C)CCCNCCCNc3ccnc4cc(Cl)ccc34)[C@@]12C (mixture of isomers) [Compound 63] | 43/32/24 | 43/32/24 | 43/32/24 | 
CC(=O)O[C@@H]1CC[C@@]2(C)[C@@H](C1)C[C@@H](OC(C)=O)[C@@H]1[C@@H]2C[C@H](OC(C)=O)[C@]2(C)[C@@H]([C@H](C)CCCNCCCNc3ccnc4cc(Cl)ccc34)CC[C@@H]12 [Compound 13] | 104/101/67 | 104/101/67 | 104/101/67 | 
CC(=O)O[C@@H]1CC[C@@]2(C)[C@@H](C1)C[C@@H](OC(C)=O)[C@@H]1[C@@H]2C[C@H](OC(C)=O)[C@]2(C)[C@@H]([C@H](C)CCCNCCCCNc3ccnc4cc(Cl)ccc34)CC[C@@H]12 [Compound 14] | 107/55/47 | 107/55/47 | 107/55/47 | 
CC(=O)O[C@@H]1CC[C@@]2(C)[C@@H](C1)C[C@@H](OC(C)=O)[C@@H]1[C@@H]2C[C@H](OC(C)=O)[C@]2(C)[C@@H]([C@H](C)CCCNCCCCCCNc3ccnc4cc(Cl)ccc34)CC[C@@H]12 [Compound 15] | 47/29/25 | 47/29/25 | 47/29/25 | 
CC(=O)O[C@H]1C[C@H]2[C@@H]([C@H](OC(C)=O)C[C@@H]3C[C@H](O)CC[C@@]32C)[C@@H]2CC[C@H]([C@H](C)CCCNCCNc3ccnc4cc(Cl)ccc34)[C@@]12C [Compound 16, N-(3α-Hydroxy-7α,12α-diacetoxy-5β-cholan-24-yl)-N′-(7′-chloroquinolin-4′-yl)ethane-1,2-diamine] | 415/938/407 | 415/938/407 | 415/938/407 | 
CC(=O)O[C@H]1C[C@H]2[C@@H]([C@H](OC(C)=O)C[C@@H]3C[C@H](O)CC[C@@]32C)[C@@H]2CC[C@H]([C@H](C)CCCNCCCCNc3ccnc4cc(Cl)ccc34)[C@@]12C [Compound 18] | 47/30/28 | 47/30/28 | 47/30/28 | 
CC(=O)O[C@H]1C[C@H]2[C@@H]([C@H](OC(C)=O)C[C@@H]3C[C@H](O)CC[C@@]32C)[C@@H]2CC[C@H]([C@H](C)CCCNCCCCCCNc3ccnc4cc(Cl)ccc34)[C@@]12C [Compound 19] | 60/56/50 | 60/56/50 | 60/56/50 | 
CC(=O)O[C@@H]1CC[C@@]2(C)[C@@H](C1)C[C@@H](OC(C)=O)[C@@H]1[C@@H]2C[C@H](OC(C)=O)[C@]2(C)[C@@H]([C@H](C)CCCN(C)CCNc3ccnc4cc(Cl)ccc34)CC[C@@H]12 [Compound 20, N-Methyl-N-(3α,7α,12α-triacetoxy-5β-cholan-24-yl)-N′-(7′-chloroquinolin-4′-yl)ethane-1,2-diamine] | 98/242/79 | 98/242/79 | 98/242/79 | 
CC(=O)O[C@@H]1CC[C@@]2(C)[C@@H](C1)C[C@@H](OC(C)=O)[C@@H]1[C@@H]2C[C@H](OC(C)=O)[C@]2(C)[C@@H]([C@H](C)CCCN(C)CCCNc3ccnc4cc(Cl)ccc34)CC[C@@H]12 [Compound 21] | 134/229/71 | 134/229/71 | 134/229/71 | 
CC(=O)O[C@H]1C[C@H]2[C@@H]([C@H](OC(C)=O)C[C@@H]3CC(=O)CC[C@@]32C)[C@@H]2CC[C@H]([C@H](C)CCCNCCNc3ccnc4cc(Cl)ccc34)[C@@]12C [Compound 22, N-(3-Oxo-7α,12α-diacetoxy-5β-cholan-24-yl)-N′-(7′-chloroquinolin-4′-yl)ethane-1,2-diamine] | 299/571/109 | 299/571/109 | 299/571/109 | 
CC(=O)O[C@H]1C[C@H]2[C@@H]([C@H](OC(C)=O)C[C@@H]3CC(=O)CC[C@@]32C)[C@@H]2CC[C@H]([C@H](C)CCCNCCCNc3ccnc4cc(Cl)ccc34)[C@@]12C [Compound 23] | 161/182/121 | 161/182/121 | 161/182/121 | 
CC(=O)O[C@H]1C[C@H]2[C@@H]([C@H](OC(C)=O)C[C@@H]3CC(=O)CC[C@@]32C)[C@@H]2CC[C@H]([C@H](C)CCCNCCCCNc3ccnc4cc(Cl)ccc34)[C@@]12C [Compound 24] | 7/6/6 | 7/6/6 | 7/6/6 | 
CC(=O)O[C@H]1C[C@H]2[C@@H]([C@H](OC(C)=O)C[C@@H]3CC(=O)CC[C@@]32C)[C@@H]2CC[C@H]([C@H](C)CCCNCCCCCCNc3ccnc4cc(Cl)ccc34)[C@@]12C [Compound 25] | 30/27/25 | 30/27/25 | 30/27/25 | 
CC(=O)N[C@@H]1CC[C@@]2(C)[C@@H](C1)C[C@@H](OC(C)=O)[C@@H]1[C@@H]2C[C@H](OC(C)=O)[C@]2(C)[C@@H]([C@H](C)CCCNCCNc3ccnc4cc(Cl)ccc34)CC[C@@H]12 [Compound 36, 24-N-[(7-Chloroquinoline-4-yl)amino]ethylamino-3α-acetamido-7α,12α-diacetoxy-5β-cholane] | 126/116/126 | 126/116/126 | 126/116/126 | 
CC(=O)N[C@@H]1CC[C@@]2(C)[C@@H](C1)C[C@@H](OC(C)=O)[C@@H]1[C@@H]2C[C@H](OC(C)=O)[C@]2(C)[C@@H]([C@H](C)CCCNCCCNc3ccnc4cc(Cl)ccc34)CC[C@@H]12 [Compound 37] | 55/114/51 | 55/114/51 | 55/114/51 | 
CC(=O)O[C@H]1C[C@H]2[C@@H]([C@H](OC(C)=O)C[C@@H]3C[C@H](NS(C)(=O)=O)CC[C@@]32C)[C@@H]2CC[C@H]([C@H](C)CCCNCCNc3ccnc4cc(Cl)ccc34)[C@@]12C [Compound 38] | 131/301/222 | 131/301/222 | 131/301/222 | 
CC(=O)O[C@H]1C[C@H]2[C@@H]([C@H](OC(C)=O)C[C@@H]3C[C@H](NS(C)(=O)=O)CC[C@@]32C)[C@@H]2CC[C@H]([C@H](C)CCCNCCCNc3ccnc4cc(Cl)ccc34)[C@@]12C [Compound 39] | 130/119/147 | 130/119/147 | 130/119/147 | 
CC(=O)O[C@H]1C[C@H]2[C@@H]([C@H](OC(C)=O)C[C@@H]3C[C@H](NC(=O)OC(C)(C)C)CC[C@@]32C)[C@@H]2CC[C@H]([C@H](C)CCCNCCNc3ccnc4cc(Cl)ccc34)[C@@]12C [Compound 40, 24-N-[(7-Chloroquinoline-4-yl)amino]ethylamino-3α-N′-tert-butylcarbamate-7α,12α-diacetoxy-5β-cholane] | 1743/531/464 | 1743/531/464 | 1743/531/464 | 
CC(=O)O[C@H]1C[C@H]2[C@@H]([C@H](OC(C)=O)C[C@@H]3C[C@H](NS(C)(=O)=O)CC[C@@]32C)[C@@H]2CC[C@H]([C@H](C)CCCN(C)CCNc3ccnc4cc(Cl)ccc34)[C@@]12C [Compound 42, 24-N-Methyl-N-[(7-chloroquinoline-4-yl)amino]ethylamino-3α-methanesulfonamide-7α,12α-diacetoxy-5β-cholane] | 1194/2707/2197 | 1194/2707/2197 | 1194/2707/2197 | 
CC(=O)O[C@H]1C[C@H]2[C@@H]([C@H](OC(C)=O)C[C@@H]3C[C@H](NC(=O)OC(C)(C)C)CC[C@@]32C)[C@@H]2CC[C@H]([C@H](C)CCCN(C)CCNc3ccnc4cc(Cl)ccc34)[C@@]12C [Compound 44, 24-N-Methyl-N-[(7-chloroquinoline-4-yl)amino]ethylamino-3α-N′-tert-butylcarbamate-7α,12α-diacetoxy-5β-cholane] | 293/264/144 | 293/264/144 | 293/264/144 | 
CC(=O)O[C@H]1C[C@H]2[C@@H]([C@H](OC(C)=O)C[C@@H]3C[C@H](N(C)C)CC[C@@]32C)[C@@H]2CC[C@H]([C@H](C)CCCNCCCNc3ccnc4cc(Cl)ccc34)[C@@]12C [Compound 51] | 382/137/156 | 382/137/156 | 382/137/156 | 
CC(=O)O[C@H]1C[C@H]2[C@@H]([C@H](OC(C)=O)C[C@@H]3C[C@H](N)CC[C@@]32C)[C@@H]2CC[C@H]([C@H](C)CCCNCCNc3ccnc4cc(Cl)ccc34)[C@@]12C [Compound 52, 24-N-[(7-Chloroquinoline-4-yl)amino]ethylamino-3α-amino-7α,12α-diacetoxy-5β-cholane] |  |  |  | 5.42
CC(=O)O[C@H]1C[C@H]2[C@@H]([C@H](OC(C)=O)C[C@@H]3C[C@H](N)CC[C@@]32C)[C@@H]2CC[C@H]([C@H](C)CCCNCCCNc3ccnc4cc(Cl)ccc34)[C@@]12C [Compound 53] | 54/75/43 | 54/75/43 | 54/75/43 | 
CC(=O)O[C@H]1C[C@H]2[C@@H]([C@H](OC(C)=O)C[C@@H]3C[C@H](N)CC[C@@]32C)[C@@H]2CC[C@H]([C@H](C)CCCN(C)CCCNc3ccnc4cc(Cl)ccc34)[C@@]12C [Compound 55] | 45/44/50 | 45/44/50 | 45/44/50 | 
CC(=O)O[C@H]1C[C@H]2[C@@H]([C@H](OC(C)=O)C[C@@H]3C[C@H](N)CC[C@@]32C)[C@@H]2CC[C@H]([C@H](C)CCCN(CCC[C@@H](C)[C@H]3CC[C@H]4[C@@H]5[C@H](OC(C)=O)C[C@@H]6C[C@H](N)CC[C@]6(C)[C@H]5C[C@H](OC(C)=O)[C@]34C)CCNc3ccnc4cc(Cl)ccc34)[C@@]12C [Compound 60, N,N-Di(3α-amino-7α,12α-diacetoxy-5β-cholan-24-yl)-N′-(7′-chloroquinoline-4′-yl)-1,3-ethanediamine] | 21/19/19 | 21/19/19 | 21/19/19 | 
